Entries after “also recorded” stand apart in the source; their conditions may differ. Square brackets hold non-standard residues; d marks the D form. Peptide text beside a SMILES is read from it. hArg = N=C(N)NCCCC[C@H](N)C(=O)O; Aib = CC(C)(N)C(=O)O
How the values were obtained:
rat PTHR [1] = target: T1, rat PTHR (Rattus norvegicus, UniProt P25961); experiment: cAMP formation in HEK-293 cells transfected with rat PTHR; assay type: cell-based; settings: versus M-PTH(1-28)
T1 sequence (P25961 27-591): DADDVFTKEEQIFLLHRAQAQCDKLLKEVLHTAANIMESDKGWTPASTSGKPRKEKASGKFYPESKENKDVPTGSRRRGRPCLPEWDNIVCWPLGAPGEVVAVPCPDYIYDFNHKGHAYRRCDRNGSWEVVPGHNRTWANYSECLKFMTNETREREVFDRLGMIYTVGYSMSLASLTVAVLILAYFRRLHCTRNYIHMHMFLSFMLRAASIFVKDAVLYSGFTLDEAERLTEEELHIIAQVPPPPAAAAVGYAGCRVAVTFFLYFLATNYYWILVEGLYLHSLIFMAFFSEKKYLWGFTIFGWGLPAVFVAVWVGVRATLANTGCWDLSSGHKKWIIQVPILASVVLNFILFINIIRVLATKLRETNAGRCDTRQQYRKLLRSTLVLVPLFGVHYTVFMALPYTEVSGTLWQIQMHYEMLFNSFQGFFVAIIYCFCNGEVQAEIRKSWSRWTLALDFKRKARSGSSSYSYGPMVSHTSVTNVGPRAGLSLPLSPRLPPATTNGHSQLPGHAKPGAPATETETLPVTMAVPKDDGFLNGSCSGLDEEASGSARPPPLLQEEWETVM
Source text: (§1) To impair PLC signaling, we replaced alanine at position 1 of M-PTH(1-28) with tryptophan, in accordance with findings of Bisello and colleagues (J Biol Chem 277:38524-30, 2002) showing that such bulky substitutions at this position selectively impair PLC signaling.

[2] = tested on: LLC-PK1 cells expressing NaPi-IIc transporter and the rat PTHR; experiment: 32P uptake in LLC-PK1 cells expressing NaPi-IIc transporter and rat PTHR; assay type: cell-based
Source text: as §1

[3] = Plasma phosphate in mice (20 nmol/kg); assay type: in vivo
Source text: as §1

NaPi-IIc = NaPi-IIc immunostaining in renal PT cells of injected mice; assay type: in vivo; settings: interval 4 to 6 h
Source text: as §1

rat PTHR [4] = target: T1, rat PTHR; experiment: IP3 formation in HEK-293 cells transfected with rat PTHR; assay type: cell-based; settings: versus M-PTH(1-28)
Source text: as §1

MC3T3-E1 cells = experiment: Prolonged cAMP response after ligand wash-out in MC3T3-E1 cells; assay type: cell-based
Source text: as §1

NaPi-IIa = NaPi-IIa staining in renal PT cells of injected mice; settings: mouse, in vivo
Source text: To help elucidate further the signaling mechanisms by which PTH ligands regulate renal phosphate transport, we developed a derivative of M-PTH(1-28) that is defective for PLC/PKC signaling, yet retains potent cAMP/PKA signaling activity. Such a peptide allows for study of the relative roles of the PKA and PKC signaling pathways in modulating the function and surface expression of the Pi transporters NaPi-IIa and NaPi-IIc in proximal tubule (PT) cells. The analog M-PTH(1-28) (M=Ala^1,Aib^3,Gln^10, Har^11,Trp^14,Arg^19), a potent agonist for cAMP and IP3 signaling pathways, induces, when injected into mice, prolonged hypophosphatemic and hypercalcemic effects.
as §1

rat PTHR [5] = target: T1, rat PTHR; experiment: GTPγS inhibition of equilibrium radioligand binding, ROS17/2.8 membranes; parameters: the rat osteoblastic cell line ROS17/2.8, which endogenously expresses the rat PTHR; endogenous in cells; host or cells: ROS 17/2.8 rat osteosarcoma cells (membranes or intact cells)
Procedure: FIGS. 2A and 2B are graphs showing GTPγS sensitivity of PTH and PTHrP analog binding to the human and rat PTHRs. Radioligand analog binding to the PTHR in membranes prepared from HKRK-B7 (FIG. 2A) or ROS 17/2.8 cells (FIG. 2B) was assessed under near-equilibrium conditions in the absence or presence of varying concentrations of GTPγS. Data are expressed as a percent of radioactivity specifically bound (SB) in the absence of GTPγS. […] The radioligands studied were ^125I-[Nle^8,21,Tyr^34]PTH(1-34)NH2 (SEQ ID NO:123); [Tyr^36]PTHrP(1-36)NH2 (SEQ ID NO:124); [Ile^5,Tyr^36]PTHrP(1-36)NH2 (SEQ ID NO:125) and [Aib^1,3,Nle^8,Gln^10,Har^11,Ala^12,Trp^14,Tyr^15]hPTH(1-15)NH2 (SEQ ID NO:126).
The effects of GTPγS on the binding of these radioligands to the PTHR under approximate-equilibrium conditions was assessed. by incubating with cell membranes for 90 minutes in the absence or presence of GTPγS at varying concentrations. […]
Binding reactions performed with ^125I-[Aib^1,3,M]PTH(1-15) radioligand were assembled and incubated in the wells of the 96-well, Multi-Screen vacuum filtration plates. […] For both radioligands, the non-specific binding was determined in reactions containing a saturating concentration of the unlabeled analog of the radioligand. The specifically bound radioactivity was calculated as a percent of the radioactivity specifically bound in the absence of a competing ligand or GTPγS.

hPTHR = target: T2, hPTHR (Homo sapiens, UniProt Q03431); experiment: Radioligand dissociation from PTHR in HKRK-B7 membranes with or without GTPγS; assay type: binding; parameters: expressed in transfected cells
T2 sequence (Q03431 27-593): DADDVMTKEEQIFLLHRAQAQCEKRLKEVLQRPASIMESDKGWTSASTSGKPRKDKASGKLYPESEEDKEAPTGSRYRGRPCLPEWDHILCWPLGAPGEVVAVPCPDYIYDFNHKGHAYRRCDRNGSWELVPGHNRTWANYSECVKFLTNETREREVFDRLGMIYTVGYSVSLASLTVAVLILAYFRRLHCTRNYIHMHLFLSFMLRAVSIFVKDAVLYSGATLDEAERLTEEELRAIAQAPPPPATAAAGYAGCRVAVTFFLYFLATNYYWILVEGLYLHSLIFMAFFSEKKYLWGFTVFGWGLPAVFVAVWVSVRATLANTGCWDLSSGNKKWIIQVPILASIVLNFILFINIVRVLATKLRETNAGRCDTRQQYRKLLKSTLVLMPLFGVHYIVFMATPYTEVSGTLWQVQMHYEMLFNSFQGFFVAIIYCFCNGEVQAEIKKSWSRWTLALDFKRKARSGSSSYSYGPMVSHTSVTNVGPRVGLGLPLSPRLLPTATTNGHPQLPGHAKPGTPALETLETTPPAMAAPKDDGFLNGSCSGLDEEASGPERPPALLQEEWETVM
Procedure: At each time point, aliquots were removed from the reaction tubes and immediately subjected to rapid vacuum filtration using a 96-well vacuum filtration plate to separate bound from free radioactivity. Non-specific binding was determined in tubes containing the unlabeled ligand (5×10^−7 M) during both the pre-incubation and dissociation phases. The specifically bound radioactivity (SB) at each time point was then expressed as the percent of the specific binding observed at t=0. […] Curves were fit to the data using either a two-phase (FIGS. 1A and 1B) or single phase (FIG. 1C) exponential decay equation. […]
Reactions contained a total membrane protein concentration of 20 to 100 μg/mL, and a total radioactivity concentration of approximately 150,000 cpm/ml. […] At the end of the reaction, bound and free radioligand were separated by vacuum filtration using a 96-well vacuum filter plate and vacuum filter apparatus (Multi-Screen system with Durapore HV, 0.65 μM filters; Millipore Corp., Milford, Mass.); the air-dried filters were then detached from the plate and counted for gamma radioactivity using a gamma counter.
These studies were performed as bulk reactions in 15 mL round-bottom polystyrene snap-cap tubes (Falcon) (total reaction volume=5.0 ml). […] The specifically bound radioactivity at each time point was calculated as a percent of the radioactivity specifically bound at t=0.

[6] = target: T3, PTHR lacking the extracellular N-terminal (N) domain (delNT) (Homo sapiens, UniProt Q03431); experiment: cAMP activity in cells expressing PTHR lacking the N domain (delNT); assay type: cell-based
T3 construct: expressed in transfected cells
T3 sequence (Q03431 with tags, fused parts or gaps limits assumed): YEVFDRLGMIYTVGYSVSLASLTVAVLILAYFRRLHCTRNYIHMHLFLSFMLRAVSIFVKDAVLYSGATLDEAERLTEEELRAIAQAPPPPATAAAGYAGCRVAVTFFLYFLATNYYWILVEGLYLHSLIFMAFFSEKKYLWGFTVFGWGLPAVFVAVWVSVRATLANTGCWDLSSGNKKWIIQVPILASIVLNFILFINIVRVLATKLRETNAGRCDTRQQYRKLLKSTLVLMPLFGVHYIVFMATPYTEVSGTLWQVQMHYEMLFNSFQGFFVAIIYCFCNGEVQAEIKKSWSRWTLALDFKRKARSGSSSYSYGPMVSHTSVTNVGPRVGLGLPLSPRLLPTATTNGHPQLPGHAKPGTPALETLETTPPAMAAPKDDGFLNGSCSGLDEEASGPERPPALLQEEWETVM

[7] = target: T4, ROS 17/2.8 cells (endogenous rat PTHR) (Rattus norvegicus, UniProt P25961); experiment: Acute cAMP response in ROS 17/2.8 rat osteoblastic cells; assay type: cell-based; settings: 10^−7 M, hPTH(1-28) 10^−6 M, basal 3.7±0.4
T4 construct: the rat osteoblastic cell line ROS17/2.8, which endogenously expresses the rat PTHR; endogenous in cells; host or cells: ROS 17/2.8 rat osteosarcoma cells (membranes or intact cells)
T4 sequence (P25961 27-591): T1 sequence (P25961 27-591)
Procedure: The resulting intracellular cAMP formed was quantified by radioimmuno assay. […] Curve fits were obtained by non-linear regression analysis.
The data in FIG. 21B are expressed as a percent of the maximum response observed for each ligand, determined by incubating the cells with ligand in the presence of IBMX for 10 minutes (no ligand wash-out).

[8] = tested on: opossum kidney (OK) cell line; experiment: Phosphate uptake inhibition in opossum kidney cells; assay type: cell-based; settings: 10 minute exposure, 1×10^−7 M
[9] = Plasma cAMP in mice after subcutaneous injection; assay type: in vivo
Procedure: FIGS. 9A-9D are graphs showing in vivo plasma cAMP levels in mice treated with PTH analogs. Wild-type mice were injected subcutaneously with vehicle (0.9% NaCl/0.05% Tween-20), or vehicle containing a PTH peptide at a dose-level of 10 to 1,000 nmol of peptide per kg of body weight, and at indicated times after injection, blood was withdrawn from the tail vein, and the amount of cAMP in the resulting plasma was quantified by radioimmuno assay. Each curve corresponds to a peptide at a defined concentration, as indicated in the graph keys. The plasma cAMP concentrations are plotted as picomole per μl plasma.
(§2) Wild-type mice were injected subcutaneously with vehicle (0.9% NaCl/0.05% Tween-20), or vehicle containing a PTH peptide so as to achieve a concentration ranging from 10 to 1000 nmol/kg of body weight. At the indicated times after injection, blood was withdrawn from the tail vein, and the amount of cAMP in the resulting plasma was quantified by radioimmuno assay (FIGS. 9A-9D).
as §2, with “at” for “so as to achieve”, “dose level of” for “concentration ranging from”, “At” for “At the”, “assay. Ionized calcium in serum was measured as above and phosphate was measured by a U.V. spectroscopic kit assay.” for “assay (FIGS. 9A-9D).”

[10] = Plasma phosphate and serum ionized calcium in mice after subcutaneous injection; assay type: in vivo; settings: 50 nmol/kg s.c.
Procedure: FIGS. 10A and 10B are graphs showing in vivo plasma phosphate and serum ionized calcium levels in mice treated with PTH analogs. […] Serum ionized calcium concentrations were determined using a Chiron Diagnostics Model 634 Ca^++/pH analyzer. Data in A are means (±s.e.m.) of one experiment using six mice (n=6) for each injection condition; similar results were obtained in three other experiments. Data in B are means (±s.e.m.) of two experiments, each performed using triplicate mice (n=3) for each injection condition.
The mice were further analyzed for changes in plasma phosphate and serum ionized calcium concentrations. […] At the indicated times after injection, blood was withdrawn from the tail vein and the concentrations of plasma phosphate (FIG. 10A) and serum ionized calcium (FIG. 10B) were determined. Serum ionized calcium concentrations were determined using a Chiron Diagnostics Model 634 Ca^++/pH analyzer. Plasma phosphate concentrations were measured using a Phosphorous Liqui-UV assay kit (StanBio Laboratory, Boerne, Tex.).
as §2, with “at” for “so as to achieve”, “dose level of” for “concentration ranging from”, “At” for “At the”, “assay. […]” for “assay (FIGS. 9A-9D).”

Compound: Trp^1-M-PTH(1-28)
- potency for stimulating cAMP formation, in words (rat PTHR [1]): about as potent as M-PTH(1-28)
- ^32P uptake, in words [2]: failed to inhibit
- time of maximal suppression of plasma phosphate [3]: 2 h
- time of recovery of plasma phosphate to vehicle control levels [3]: 6 h
- NaPi-IIc immunostaining, in words (NaPi-IIc): unchanged
- fold less potent than parent peptide for stimulating IP3 formation (rat PTHR [4]): at least 100 fold
- cAMP response after ligand wash-out, in words (MC3T3-E1 cells): retained the capacity to produce a prolonged cAMP response
- apical and cytoplasmic NaPi-IIa staining, in words (NaPi-IIa): remained reduced for at least six hours

Compound: ^125I[Tyr^36]PTHrP(1-36)NH2 [^125I-PTHrP(1-36)]
- sensitivity of binding to GTPγS, in words (rat PTHR [5]): strongly inhibited
- fraction of complexes stable, decaying slowly (hPTHR; absence of GTPγS): 68%
- fraction of complexes unstable, decaying rapidly (hPTHR; with GTPγS): 72%

Compound: PTHrP(1-14) (AVSEHQLLHDKGKS)
- cAMP potency on delNT compared with PTH counterparts, in words [6]: much less potent for cAMP activity

Compound: CC[C@H](C)[C@H](NC(=O)[C@H](CCC(=O)O)NC(=O)C(C)(C)NC(=O)[C@@H](NC(=O)[C@H](C)N)C(C)C)C(=O)N[C@@H](CCC(N)=O)C(=O)N[C@@H](CC(C)C)C(=O)N[C@@H](CCSC)C(=O)N[C@@H](Cc1c[nH]cn1)C(=O)N[C@@H](CCC(N)=O)C(=O)N[C@@H](CCCCNC(=N)N)C(=O)N[C@@H](C)C(=O)N[C@@H](CCCCN)C(=O)N[C@@H](Cc1c[nH]c2ccccc12)C(=O)N[C@@H](CC(C)C)C(=O)N[C@@H](CC(N)=O)C(=O)N[C@@H](CO)C(=O)N[C@@H](CCSC)C(=O)N[C@@H](CCCNC(=N)N)C(=O)N[C@@H](CCCNC(=N)N)C(=O)N[C@H](C(=O)N[C@@H](CCC(=O)O)C(=O)N[C@@H](Cc1c[nH]c2ccccc12)C(=O)N[C@@H](CC(C)C)C(=O)N[C@@H](CCCNC(=N)N)C(=O)N[C@@H](CCCCN)C(=O)N[C@@H](CCCCN)C(=O)N[C@@H](CC(C)C)C(N)=O)C(C)C [[A^1,Aib^3,M]-PTH(1-28), [Ala^1,12,Aib^3,Gln^10,homoarginine^11,Trp^14,Arg^19]human(h)PTH(1-28)NH2] (H-AV[Aib]EIQLMHQ[hArg]AKWLNSMRRVEWLRKKL-NH2; N-terminus assumed)
- maximum cAMP response (ligand with IBMX 10 minutes, no wash-out) [7]: 71±1 pmole/well
- ^32P uptake, in words [2]: inhibited
- time of maximal suppression of plasma phosphate [3]: 2 h
- time of recovery of plasma phosphate to vehicle control levels [3]: 6 h
- NaPi-IIc immunostaining, in words (NaPi-IIc): reduced
- duration of phosphate uptake inhibition, in words [8]: dramatically prolonged inhibitory effect on phosphate uptake
- dose producing comparable increase in plasma cAMP [9]: 50 nmol/kg
- duration of serum calcium and plasma phosphate responses, in words [10]: more prolonged than those to hPTH(1-34)NH2
- apical and cytoplasmic NaPi-IIa staining, in words (NaPi-IIa): prolonged reductions in NaPi-IIa immunoreactivity; also recorded: remained reduced for at least six hours

Reference: US9057727B2, “Screening methods using G-protein coupled receptors and related compositions” (The General Hospital Corporation, priority 2007, dated 2015)
